Data published in patent US20250230193A1, “CYCLIC COMPOUND HAVING SELECTIVE KRAS INHIBITORY EFFECT ON HRAS AND NRAS” (CHUGAI SEIYAKU KABUSHIKI KAISHA, priority 2022, published 2025).
Where a SMILES comes first, the peptide text is derived from it. Bridges are numbered along the chain shown (N, C = ends). [ ]: non-standard residue; d: D form. The star is where a group is joined. hPhe(3,5-F2-4-CF3) = N[C@@H](CCc1cc(F)c(C(F)(F)F)c(F)c1)C(=O)O; NPrPhe(4-CF3) = CCCN[C@@H](Cc1ccc(C(F)(F)F)cc1)C(=O)O; NMeGly(cPent) = CN[C@H](C(=O)O)C1CCCC1; Ac4c(3,3-F2) = NC1(C(=O)O)CC(F)(F)C1; αMeCha = C[C@](N)(CC1CCCCC1)C(=O)O; NMeD = CN[C@@H](CC(=O)O)C(=O)O; Ac4c(3-oxa) = NC1(C(=O)O)COC1; NMeL = CN[C@@H](CC(C)C)C(=O)O; αMeS = C[C@](N)(CO)C(=O)O; Morpholide = C1CN(*)CCO1; Aze = O=C(O)[C@@H]1CCN1; Sar = CNCC(=O)O; tBu = CC(C)(C)*; Allyl = C=CC*

What was measured:
[1] = biological target: GDP-bound NRAS wild-type protein (Homo sapiens, UniProt P01111); experiment: Binding to NRAS by surface plasmon resonance (SPR), Single Cycle Kinetics; settings: KD ratio NRAS/KRAS, SPR
Sequence of GDP-bound NRAS wild-type protein (P01111 whole entry): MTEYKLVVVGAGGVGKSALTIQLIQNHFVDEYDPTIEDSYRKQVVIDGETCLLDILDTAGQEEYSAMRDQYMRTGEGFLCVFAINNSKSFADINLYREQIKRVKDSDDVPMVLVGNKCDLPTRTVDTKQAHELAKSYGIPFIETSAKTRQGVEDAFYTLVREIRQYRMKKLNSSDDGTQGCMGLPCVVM

[2] = biological target: GDP-bound HRAS wild-type protein (Homo sapiens, UniProt P01112); experiment: Binding to HRAS by surface plasmon resonance (SPR), Single Cycle Kinetics; settings: KD ratio HRAS/KRAS, SPR
Sequence of GDP-bound HRAS wild-type protein (P01112 whole entry): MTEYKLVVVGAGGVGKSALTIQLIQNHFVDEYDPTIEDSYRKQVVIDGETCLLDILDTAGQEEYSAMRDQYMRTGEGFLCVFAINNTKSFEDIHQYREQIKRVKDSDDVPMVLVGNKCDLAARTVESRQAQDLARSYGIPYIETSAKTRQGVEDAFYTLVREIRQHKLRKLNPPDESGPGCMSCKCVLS

CCCN1C(=O)[C@@H]2CCN2C(=O)CN(C)C(=O)[C@H]([C@@H](C)CC)NC(=O)[C@H](CC(C)C)N(C)C(=O)C[C@@H](C(=O)N2CCOCC2)N(C)C(=O)[C@H](C2CCCC2)N(C)C(=O)[C@](C)(CC2CCCCC2)NC(=O)[C@@H]2CCCN2C(=O)[C@H](CCc2cc(F)c(C(F)(F)F)c(F)c2)NC(=O)CN(C)C(=O)[C@@H]1Cc1ccc(C(F)(F)F)cc1 [PP0796] ([NMeL]I[Sar][Aze][NPrPhe(4-CF3)][Sar][hPhe(3,5-F2-4-CF3)]P[αMeCha][NMeGly(cPent)][NMeD]-Morpholide; lactam N-11)
NRAS/KRAS (ratio of KD value with respect to GDP-bound NRAS wild-type protein to KD value with respect to KRAS) [1]: C (A compound having a KD ratio of 0.1 or more and less than 3 is denoted as C) | HRAS/KRAS (ratio of KD value with respect to GDP-bound HRAS wild-type protein to KD value with respect to KRAS) [2]: B (a compound having 3 or more and less than 10 is denoted as B)

CCCN1C(=O)[C@@H]2CCN2C(=O)CN(C)C(=O)[C@H]([C@@H](C)CC)NC(=O)[C@H](CC(C)C)N(C)C(=O)C[C@@H](C(=O)N2CCOCC2)N(C)C(=O)[C@H](C2CCCC2)N(C)C(=O)[C@](C)(COC)NC(=O)[C@@H]2CCCN2C(=O)[C@H](CCc2cc(F)c(C(F)(F)F)c(F)c2)NC(=O)CN(C)C(=O)[C@@H]1Cc1ccc(C(F)(F)F)cc1 [PP0798] ([NMeL]I[Sar][Aze][NPrPhe(4-CF3)][Sar][hPhe(3,5-F2-4-CF3)]P[αMeS](Me)[NMeGly(cPent)][NMeD]-Morpholide; lactam N-11)
NRAS/KRAS (ratio of KD value with respect to GDP-bound NRAS wild-type protein to KD value with respect to KRAS) [1]: C (A compound having a KD ratio of 0.1 or more and less than 3 is denoted as C) | HRAS/KRAS (ratio of KD value with respect to GDP-bound HRAS wild-type protein to KD value with respect to KRAS) [2]: B (a compound having 3 or more and less than 10 is denoted as B)

C=CCOC[C@]1(C)NC(=O)[C@@H]2CCCN2C(=O)[C@H](CCc2cc(F)c(C(F)(F)F)c(F)c2)NC(=O)CN(C)C(=O)[C@H](Cc2ccc(C(F)(F)F)cc2)N(CCC)C(=O)[C@@H]2CCN2C(=O)CN(C)C(=O)[C@H]([C@@H](C)CC)NC(=O)[C@H](CC(C)C)N(C)C(=O)C[C@@H](C(=O)N2CCOCC2)N(C)C(=O)[C@H](C2CCCC2)N(C)C1=O [PP0799] ([NMeL]I[Sar][Aze][NPrPhe(4-CF3)][Sar][hPhe(3,5-F2-4-CF3)]P[αMeS](Allyl)[NMeGly(cPent)][NMeD]-Morpholide; lactam N-11)
NRAS/KRAS (ratio of KD value with respect to GDP-bound NRAS wild-type protein to KD value with respect to KRAS) [1]: C (A compound having a KD ratio of 0.1 or more and less than 3 is denoted as C) | HRAS/KRAS (ratio of KD value with respect to GDP-bound HRAS wild-type protein to KD value with respect to KRAS) [2]: B (a compound having 3 or more and less than 10 is denoted as B)

CCCN1C(=O)[C@@H]2CCN2C(=O)CN(C)C(=O)[C@H]([C@@H](C)CC)NC(=O)[C@H](CC(C)C)N(C)C(=O)C[C@@H](C(=O)N2CCOCC2)N(C)C(=O)[C@H](C2CCCC2)N(C)C(=O)[C@](C)(COC(C)(C)C)NC(=O)[C@@H]2CCCN2C(=O)[C@H](CCc2cc(F)c(C(F)(F)F)c(F)c2)NC(=O)CN(C)C(=O)[C@@H]1Cc1ccc(C(F)(F)F)cc1 [PP0800] ([NMeL]I[Sar][Aze][NPrPhe(4-CF3)][Sar][hPhe(3,5-F2-4-CF3)]P[αMeS](tBu)[NMeGly(cPent)][NMeD]-Morpholide; lactam N-11)
NRAS/KRAS (ratio of KD value with respect to GDP-bound NRAS wild-type protein to KD value with respect to KRAS) [1]: C (A compound having a KD ratio of 0.1 or more and less than 3 is denoted as C) | HRAS/KRAS (ratio of KD value with respect to GDP-bound HRAS wild-type protein to KD value with respect to KRAS) [2]: B (a compound having 3 or more and less than 10 is denoted as B)

CCCN1C(=O)[C@@H]2CCN2C(=O)CN(C)C(=O)[C@H]([C@@H](C)CC)NC(=O)[C@H](CC(C)C)N(C)C(=O)C[C@@H](C(=O)N2CCOCC2)N(C)C(=O)[C@H](C2CCCC2)N(C)C(=O)C2(COC2)NC(=O)[C@@H]2CCCN2C(=O)[C@H](CCc2cc(F)c(C(F)(F)F)c(F)c2)NC(=O)CN(C)C(=O)[C@@H]1Cc1ccc(C(F)(F)F)cc1 [PP0801] ([NMeL]I[Sar][Aze][NPrPhe(4-CF3)][Sar][hPhe(3,5-F2-4-CF3)]P[Ac4c(3-oxa)][NMeGly(cPent)][NMeD]-Morpholide; lactam N-11)
NRAS/KRAS (ratio of KD value with respect to GDP-bound NRAS wild-type protein to KD value with respect to KRAS) [1]: C (A compound having a KD ratio of 0.1 or more and less than 3 is denoted as C) | HRAS/KRAS (ratio of KD value with respect to GDP-bound HRAS wild-type protein to KD value with respect to KRAS) [2]: B (a compound having 3 or more and less than 10 is denoted as B)

CCCN1C(=O)[C@@H]2CCN2C(=O)CN(C)C(=O)[C@H]([C@@H](C)CC)NC(=O)[C@H](CC(C)C)N(C)C(=O)C[C@@H](C(=O)N2CCOCC2)N(C)C(=O)[C@H](C2CCCC2)N(C)C(=O)C2(CC(F)(F)C2)NC(=O)[C@@H]2CCCN2C(=O)[C@H](CCc2cc(F)c(C(F)(F)F)c(F)c2)NC(=O)CN(C)C(=O)[C@@H]1Cc1ccc(C(F)(F)F)cc1 [PP0802] ([NMeL]I[Sar][Aze][NPrPhe(4-CF3)][Sar][hPhe(3,5-F2-4-CF3)]P[Ac4c(3,3-F2)][NMeGly(cPent)][NMeD]-Morpholide; lactam N-11)
NRAS/KRAS (ratio of KD value with respect to GDP-bound NRAS wild-type protein to KD value with respect to KRAS) [1]: C (A compound having a KD ratio of 0.1 or more and less than 3 is denoted as C) | HRAS/KRAS (ratio of KD value with respect to GDP-bound HRAS wild-type protein to KD value with respect to KRAS) [2]: B (a compound having 3 or more and less than 10 is denoted as B)
